Columns and labels:
[1] = target: T1, Mitogen-activated protein kinase 12 (Homo sapiens) (UniProt P53778); experiment: Selectivity interaction (Kinase screening (Upstate/Millipore)) EUB0000604a MAPK12
T1 sequence (whole entry): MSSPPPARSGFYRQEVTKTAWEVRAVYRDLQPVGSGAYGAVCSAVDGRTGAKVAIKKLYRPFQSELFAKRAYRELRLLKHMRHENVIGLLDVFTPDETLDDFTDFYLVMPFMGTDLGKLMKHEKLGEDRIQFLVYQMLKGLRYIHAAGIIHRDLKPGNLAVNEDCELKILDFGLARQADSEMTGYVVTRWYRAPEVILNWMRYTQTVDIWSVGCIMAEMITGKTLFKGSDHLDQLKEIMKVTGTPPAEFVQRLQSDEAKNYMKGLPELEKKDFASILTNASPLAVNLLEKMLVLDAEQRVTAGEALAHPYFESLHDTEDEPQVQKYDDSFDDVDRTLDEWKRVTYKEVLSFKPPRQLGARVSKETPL

[2] = target: Tyrosine-protein kinase JAK1 (Homo sapiens, UniProt P23458); experiment: Selectivity interaction (ActivX KiNativ screen (kinase selectivity in THP-1 cell lysates)) EUB0000639a JAK1; assay type: subcellular; conditions: lysate, at 5 µM
Chain of Tyrosine-protein kinase JAK1 (P23458 whole entry): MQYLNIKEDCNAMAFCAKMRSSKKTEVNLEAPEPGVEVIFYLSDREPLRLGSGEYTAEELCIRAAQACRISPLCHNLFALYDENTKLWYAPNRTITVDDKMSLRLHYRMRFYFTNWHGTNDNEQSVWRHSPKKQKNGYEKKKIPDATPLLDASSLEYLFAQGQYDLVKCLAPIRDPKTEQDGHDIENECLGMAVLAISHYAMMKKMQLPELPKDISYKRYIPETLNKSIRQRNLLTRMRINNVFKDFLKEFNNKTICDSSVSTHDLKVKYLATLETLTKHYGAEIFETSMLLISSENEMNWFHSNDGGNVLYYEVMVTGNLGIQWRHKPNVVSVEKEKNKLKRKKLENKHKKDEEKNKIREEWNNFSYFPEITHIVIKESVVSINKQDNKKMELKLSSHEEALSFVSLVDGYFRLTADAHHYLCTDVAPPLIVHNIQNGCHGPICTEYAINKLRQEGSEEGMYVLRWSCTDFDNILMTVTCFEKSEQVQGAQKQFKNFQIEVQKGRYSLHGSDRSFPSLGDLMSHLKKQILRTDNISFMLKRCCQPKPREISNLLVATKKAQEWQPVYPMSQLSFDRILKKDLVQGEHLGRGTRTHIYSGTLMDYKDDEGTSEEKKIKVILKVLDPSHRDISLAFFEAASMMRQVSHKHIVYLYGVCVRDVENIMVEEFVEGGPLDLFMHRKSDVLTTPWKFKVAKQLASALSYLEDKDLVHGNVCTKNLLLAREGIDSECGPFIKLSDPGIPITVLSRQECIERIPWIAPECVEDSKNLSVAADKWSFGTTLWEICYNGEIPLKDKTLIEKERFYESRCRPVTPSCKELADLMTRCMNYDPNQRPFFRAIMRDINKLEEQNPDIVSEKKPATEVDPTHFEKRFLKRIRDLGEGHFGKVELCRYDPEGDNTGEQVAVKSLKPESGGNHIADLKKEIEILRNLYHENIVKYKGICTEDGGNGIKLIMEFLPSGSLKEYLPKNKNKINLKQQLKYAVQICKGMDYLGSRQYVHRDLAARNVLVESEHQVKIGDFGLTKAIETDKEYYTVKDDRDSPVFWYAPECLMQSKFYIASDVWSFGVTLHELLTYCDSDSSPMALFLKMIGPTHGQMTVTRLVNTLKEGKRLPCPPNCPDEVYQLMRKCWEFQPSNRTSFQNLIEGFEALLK

[3] = target: T2, Mitogen-activated protein kinase kinase kinase 5 (Homo sapiens) (UniProt Q99683); experiment: Selectivity interaction (ActivX KiNativ screen (kinase selectivity in THP-1 cell lysates)) EUB0000639a MAP3K5; assay type: subcellular; conditions: lysate, at 0.2 µM
T2 sequence (whole entry): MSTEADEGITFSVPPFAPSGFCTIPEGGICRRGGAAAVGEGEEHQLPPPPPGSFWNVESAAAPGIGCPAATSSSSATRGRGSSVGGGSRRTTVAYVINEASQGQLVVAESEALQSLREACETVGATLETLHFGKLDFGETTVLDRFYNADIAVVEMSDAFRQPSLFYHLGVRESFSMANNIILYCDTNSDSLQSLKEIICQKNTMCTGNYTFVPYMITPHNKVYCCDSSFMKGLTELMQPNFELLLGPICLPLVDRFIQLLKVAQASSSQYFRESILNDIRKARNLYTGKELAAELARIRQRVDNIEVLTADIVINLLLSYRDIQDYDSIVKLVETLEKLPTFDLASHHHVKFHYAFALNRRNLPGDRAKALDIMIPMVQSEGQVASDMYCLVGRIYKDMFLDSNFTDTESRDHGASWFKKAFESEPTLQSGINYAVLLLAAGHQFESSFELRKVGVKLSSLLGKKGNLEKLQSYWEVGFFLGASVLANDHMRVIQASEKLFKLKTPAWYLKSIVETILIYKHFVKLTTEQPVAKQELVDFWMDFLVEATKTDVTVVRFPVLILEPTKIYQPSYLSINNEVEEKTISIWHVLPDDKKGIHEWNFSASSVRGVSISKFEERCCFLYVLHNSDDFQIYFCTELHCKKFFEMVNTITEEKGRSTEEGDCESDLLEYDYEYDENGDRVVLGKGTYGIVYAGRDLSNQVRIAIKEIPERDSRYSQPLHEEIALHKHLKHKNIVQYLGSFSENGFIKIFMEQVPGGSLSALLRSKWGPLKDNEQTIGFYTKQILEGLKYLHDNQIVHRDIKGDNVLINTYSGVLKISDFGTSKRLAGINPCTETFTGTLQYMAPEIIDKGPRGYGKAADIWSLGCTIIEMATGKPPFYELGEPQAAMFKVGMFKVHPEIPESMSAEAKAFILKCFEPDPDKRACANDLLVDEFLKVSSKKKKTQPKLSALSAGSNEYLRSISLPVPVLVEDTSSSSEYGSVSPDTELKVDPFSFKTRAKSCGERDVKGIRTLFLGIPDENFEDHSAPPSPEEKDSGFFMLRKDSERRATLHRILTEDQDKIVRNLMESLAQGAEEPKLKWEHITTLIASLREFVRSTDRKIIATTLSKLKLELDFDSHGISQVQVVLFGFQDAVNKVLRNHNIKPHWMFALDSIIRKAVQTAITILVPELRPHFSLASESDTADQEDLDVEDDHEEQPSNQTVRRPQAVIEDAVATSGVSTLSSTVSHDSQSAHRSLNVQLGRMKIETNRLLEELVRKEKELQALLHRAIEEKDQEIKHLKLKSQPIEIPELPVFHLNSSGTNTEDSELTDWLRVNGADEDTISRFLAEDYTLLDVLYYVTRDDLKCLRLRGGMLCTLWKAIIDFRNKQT

[4] = target: Ribosomal protein S6 kinase alpha-1 (Homo sapiens, UniProt Q15418); experiment: Selectivity interaction (ActivX KiNativ screen (kinase selectivity in THP-1 cell lysates)) EUB0000639a RPS6KA1; assay type: subcellular; conditions: lysate, at 5 µM
Chain of Ribosomal protein S6 kinase alpha-1 (Q15418 whole entry): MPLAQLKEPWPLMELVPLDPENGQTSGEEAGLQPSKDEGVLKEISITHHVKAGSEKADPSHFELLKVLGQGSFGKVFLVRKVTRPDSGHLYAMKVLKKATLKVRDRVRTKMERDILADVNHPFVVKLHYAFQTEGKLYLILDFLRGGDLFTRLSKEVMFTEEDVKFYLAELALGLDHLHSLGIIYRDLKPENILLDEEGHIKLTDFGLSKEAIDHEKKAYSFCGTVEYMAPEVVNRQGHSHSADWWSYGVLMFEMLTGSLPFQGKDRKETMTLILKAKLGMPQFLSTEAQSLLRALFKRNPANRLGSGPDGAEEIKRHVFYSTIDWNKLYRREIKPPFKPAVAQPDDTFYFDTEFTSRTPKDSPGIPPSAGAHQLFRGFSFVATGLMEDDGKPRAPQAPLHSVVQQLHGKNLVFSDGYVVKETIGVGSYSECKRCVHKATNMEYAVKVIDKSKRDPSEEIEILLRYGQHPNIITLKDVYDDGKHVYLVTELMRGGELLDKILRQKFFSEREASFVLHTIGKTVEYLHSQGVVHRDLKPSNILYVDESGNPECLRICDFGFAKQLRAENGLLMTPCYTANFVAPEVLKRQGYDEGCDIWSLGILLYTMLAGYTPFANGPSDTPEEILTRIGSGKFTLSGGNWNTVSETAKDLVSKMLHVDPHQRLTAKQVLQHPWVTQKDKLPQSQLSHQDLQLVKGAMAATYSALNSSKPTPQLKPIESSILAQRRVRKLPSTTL

[5] = target: Serine/threonine-protein kinase PLK1 (Homo sapiens, UniProt P53350); conditions: at 10 µM
Chain of Serine/threonine-protein kinase PLK1 (P53350 whole entry): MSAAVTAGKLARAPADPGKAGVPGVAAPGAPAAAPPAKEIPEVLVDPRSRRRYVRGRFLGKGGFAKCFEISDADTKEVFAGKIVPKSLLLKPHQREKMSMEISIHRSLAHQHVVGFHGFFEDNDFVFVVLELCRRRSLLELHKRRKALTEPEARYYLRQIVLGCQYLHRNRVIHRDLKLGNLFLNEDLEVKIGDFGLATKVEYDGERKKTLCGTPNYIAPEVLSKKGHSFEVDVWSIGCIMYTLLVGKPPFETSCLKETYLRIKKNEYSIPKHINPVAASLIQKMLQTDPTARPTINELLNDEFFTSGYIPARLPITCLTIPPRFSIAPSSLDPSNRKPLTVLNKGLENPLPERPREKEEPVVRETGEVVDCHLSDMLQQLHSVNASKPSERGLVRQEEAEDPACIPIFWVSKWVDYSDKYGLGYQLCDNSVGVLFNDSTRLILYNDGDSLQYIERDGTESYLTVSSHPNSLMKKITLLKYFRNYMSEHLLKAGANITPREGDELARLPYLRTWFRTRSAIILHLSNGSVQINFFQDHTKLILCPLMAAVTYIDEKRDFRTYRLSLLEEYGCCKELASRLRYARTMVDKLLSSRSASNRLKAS

[6] = target: T3, Testis-specific serine/threonine-protein kinase 1 (Homo sapiens) (UniProt Q9BXA7); experiment: Selectivity interaction (ProQinase) EUB0000171b TSSK1A
T3 sequence (whole entry): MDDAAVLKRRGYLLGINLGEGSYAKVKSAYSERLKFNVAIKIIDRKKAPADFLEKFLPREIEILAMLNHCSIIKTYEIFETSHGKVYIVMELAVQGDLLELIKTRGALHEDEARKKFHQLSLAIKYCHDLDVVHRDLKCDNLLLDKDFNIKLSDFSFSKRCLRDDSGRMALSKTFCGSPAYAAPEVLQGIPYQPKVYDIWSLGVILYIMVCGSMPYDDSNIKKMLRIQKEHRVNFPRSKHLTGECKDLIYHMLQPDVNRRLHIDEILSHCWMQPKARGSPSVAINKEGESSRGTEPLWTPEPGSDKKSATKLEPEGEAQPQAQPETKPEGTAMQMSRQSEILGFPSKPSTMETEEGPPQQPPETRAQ

[7] = target: Insulin receptor-related protein (Homo sapiens) (UniProt P14616); experiment: Selectivity interaction (KinomeScan (DiscoverX)) EUB0000045b INSRR
Chain of Insulin receptor-related protein (Homo sapiens) (P14616 27-742 limits assumed): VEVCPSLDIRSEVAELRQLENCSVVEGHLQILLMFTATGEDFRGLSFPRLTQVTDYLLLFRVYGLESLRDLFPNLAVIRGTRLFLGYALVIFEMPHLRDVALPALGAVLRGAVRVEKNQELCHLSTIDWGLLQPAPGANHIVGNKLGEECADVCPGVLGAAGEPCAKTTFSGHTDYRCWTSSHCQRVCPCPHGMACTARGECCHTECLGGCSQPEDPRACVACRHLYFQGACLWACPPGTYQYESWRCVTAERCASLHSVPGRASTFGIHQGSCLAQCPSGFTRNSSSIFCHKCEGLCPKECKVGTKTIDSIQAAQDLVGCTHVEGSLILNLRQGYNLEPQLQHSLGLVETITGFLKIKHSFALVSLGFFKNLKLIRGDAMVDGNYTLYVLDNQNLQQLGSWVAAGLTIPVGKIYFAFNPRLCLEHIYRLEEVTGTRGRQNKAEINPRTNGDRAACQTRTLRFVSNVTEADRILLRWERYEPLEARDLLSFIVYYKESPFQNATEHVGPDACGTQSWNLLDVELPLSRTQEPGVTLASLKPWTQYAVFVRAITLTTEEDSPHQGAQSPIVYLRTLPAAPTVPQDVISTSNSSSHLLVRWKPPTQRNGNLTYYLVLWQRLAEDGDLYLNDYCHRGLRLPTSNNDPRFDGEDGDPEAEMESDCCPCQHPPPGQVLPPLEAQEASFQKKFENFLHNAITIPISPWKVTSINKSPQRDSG
Chain of Insulin receptor-related protein (Homo sapiens) (P14616 747-1297 limits assumed): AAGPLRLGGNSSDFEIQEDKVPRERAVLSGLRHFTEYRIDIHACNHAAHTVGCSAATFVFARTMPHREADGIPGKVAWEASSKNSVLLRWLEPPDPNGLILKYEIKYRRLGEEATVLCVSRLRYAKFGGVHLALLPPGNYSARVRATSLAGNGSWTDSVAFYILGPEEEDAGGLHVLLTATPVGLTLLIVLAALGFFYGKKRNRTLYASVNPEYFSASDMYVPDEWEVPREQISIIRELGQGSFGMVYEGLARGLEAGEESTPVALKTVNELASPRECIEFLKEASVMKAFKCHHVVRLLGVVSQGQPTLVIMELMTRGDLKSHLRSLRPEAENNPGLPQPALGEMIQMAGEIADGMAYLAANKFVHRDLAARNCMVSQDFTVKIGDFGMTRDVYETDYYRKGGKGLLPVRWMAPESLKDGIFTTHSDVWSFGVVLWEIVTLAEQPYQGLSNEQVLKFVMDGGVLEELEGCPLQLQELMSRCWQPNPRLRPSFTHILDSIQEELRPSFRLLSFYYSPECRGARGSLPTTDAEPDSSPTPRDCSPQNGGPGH

[8] = target: Ribosomal protein S6 kinase alpha-4 (Homo sapiens) (UniProt O75676); experiment: Selectivity interaction (Kinase panel (KiNativ target engagement assay in Jurkat cells)) EUB0001635a RPS6KA4; assay type: cell-based; conditions: Selectivity number of off-targets 0.0, Selectivity number of targets 233.0, Source Knowledge https://www.sciencedirect.com/science/article/pii/S2451945619300674?via%3Dihub, at 1 µM
Chain of Ribosomal protein S6 kinase alpha-4 (Homo sapiens) (O75676 whole entry, looked up): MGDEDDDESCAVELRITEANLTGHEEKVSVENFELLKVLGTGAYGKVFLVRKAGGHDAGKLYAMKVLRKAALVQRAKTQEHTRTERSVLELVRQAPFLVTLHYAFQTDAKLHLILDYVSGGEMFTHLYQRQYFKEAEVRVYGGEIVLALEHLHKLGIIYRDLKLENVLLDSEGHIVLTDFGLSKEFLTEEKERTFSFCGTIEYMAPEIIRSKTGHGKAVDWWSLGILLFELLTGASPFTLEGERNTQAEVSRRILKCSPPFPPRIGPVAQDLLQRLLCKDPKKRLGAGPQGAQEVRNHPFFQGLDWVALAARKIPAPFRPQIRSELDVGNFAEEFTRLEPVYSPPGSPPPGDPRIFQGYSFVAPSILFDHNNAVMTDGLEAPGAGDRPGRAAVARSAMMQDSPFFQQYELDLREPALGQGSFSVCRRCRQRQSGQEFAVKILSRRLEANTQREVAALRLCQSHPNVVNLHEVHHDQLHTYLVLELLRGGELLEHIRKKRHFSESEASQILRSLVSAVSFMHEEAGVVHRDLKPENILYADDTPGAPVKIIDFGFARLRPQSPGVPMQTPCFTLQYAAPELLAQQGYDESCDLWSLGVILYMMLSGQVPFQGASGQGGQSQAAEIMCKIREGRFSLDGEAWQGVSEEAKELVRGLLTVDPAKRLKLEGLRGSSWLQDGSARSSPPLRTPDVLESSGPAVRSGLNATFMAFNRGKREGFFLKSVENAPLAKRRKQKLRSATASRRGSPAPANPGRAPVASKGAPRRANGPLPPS

Compound `Cc1cnc(Nc2ccc(F)cc2Cl)nc1-c1c[nH]c(C(=O)N[C@H](CO)c2cccc(Cl)c2)c1` has a % of inhibition [1] of 56%.
With `CC[C@@H]1[C@H](F)C(=O)N[C@@H]1COc1nccc2cc(C(N)=O)c(OC)cc12` [ZIMLOVISERTIB] the % of inhibition [2] was -5.3%, the % of inhibition [3] was -11.2% and the % of inhibition [4] was 0.2%.
`CCN(CC)CCCCNc1ncc2cc(-c3cc(OC)cc(OC)c3)c(NC(=O)NC(C)(C)C)nc2n1` was tested, and the % of control [5] was 100%.
In the case of `C=CC(=O)Nc1cccc(C(=O)Nc2ccc(Nc3cc(-c4[nH]c(SC)nc4C)ccn3)cc2)c1`, the % of control ([6]; at 1 µM) is reported as 76% and the % of control ([6]; at 5 µM) is reported as 72%.
Compound `C=CC(=O)Nc1cc(-n2c(=O)ccc3cnc4ccc(-c5ccc(NS(C)(=O)=O)cc5)cc4c32)ccc1C` has a % of control ([7]; at 1 µM) of 98% and a % of control ([7]; at 10 µM) of 100%.
`C=CC(=O)Nc1ccc(C(=O)Nc2[nH]nc3c2CN(C(=O)N[C@H](CN(C)C)c2ccccc2)C3(C)C)cc1` was tested, and the % of engagement [8] was -6.3%.
